Results taken from paper PMC3412067 (Journal of medicinal chemistry, 2012).
“Also recorded” adds a separate entry of the source. Read-outs that look alike come from different tables or passages of the source. Marks after values point to notes of the source that are not given here.

Tests used:
[1] = biological target: MOR-1 (mu) (Mus musculus, UniProt P42866); test: Competition binding against 125I-BNtxA in CHO cells stably expressing MOR-1
[2] = biological target: KOR-1 (kappa) (Mus musculus, UniProt P33534); test: Competition binding against 125I-BNtxA in CHO cells stably expressing KOR-1
[3] = biological target: DOR-1 (delta) (Mus musculus, UniProt P32300); test: Competition binding against 125I-BNtxA in CHO cells stably expressing DOR-1; conditions: for fold lower affinity for delta receptors: compared to 15
[4] = biological target: 6TM/E11 sites (Mus musculus, UniProt P42866); format: binding; conditions: compared to 15
[5] = test system: CD-1 mice; test: Radiant heat tail flick analgesia assay; format: in vivo, mouse; conditions: for analgesic activity (in words): tail flick, doses as high as 10 mg/kg
[6] = test system: CD-1 mice; conditions: cited from earlier work
[7] = test system: knockout mouse; conditions: cited from earlier work
[8] = test system: mice; conditions: cited from earlier work
[9] = test system: mice; conditions: cited from earlier work; remark: listed apart in the source
[10] = test system: mice; conditions: cited from earlier work; remark: listed apart in the source
[11] = cited from earlier work
[12] = test system: mice; test: Respiratory depression assay; format: in vivo, mouse; conditions: 15 2.5 mg/kg s.c., morphine 20 mg/kg s.c., about 4-fold analgesic ED50; n=5

In the case of `C=CCN1CC[C@]23c4c5ccc(O)c4O[C@H]2[C@H](NC(=O)c2ccccc2)CC[C@@]3(O)[C@H]1C5` [Compound 22, 17-Allyl-3,14β-dihydroxy-4,5α-epoxy-6β-(benzamido)morphinan], the “fold lower affinity for mu receptors” value ([1]; compared to 15) is reported as “about 20 fold”, the “fold lower affinity for kappa receptors” value ([2]; compared to 15) is reported as about 180 fold and the “fold lower affinity for delta receptors” value [3] is reported as about 25 fold. The “fold lower binding affinity for the 6TM/E11 site” value (shortened to “fold lower binding affinity”) [4] was “over 20 fold”.
In the case of `C=CCN1CC[C@]23c4c5ccc(O)c4O[C@H]2[C@H](NC(=O)c2cccc(C(F)(F)F)c2)CC[C@@]3(O)[C@H]1C5` [Compound 24, 17-Allyl-3,14β-dihydroxy-4,5α-epoxy-6β-[(3′-trifluoromethyl)benzamido]morphinan], the “analgesic activity (in words)” value ([5]; s.c.) is reported as “potent analgesic actions”.
In the case of `O=C(N[C@@H]1CC[C@@]2(O)[C@H]3Cc4ccc(O)c5c4[C@@]2(CCN3CC2CC2)[C@H]1O5)c1cccc(I)c1` [Compound 1, 3-Iodobenzoylnaltrexamide], the “Tail flick analgesia ED50 mg/kg (95%CL)” value ([6]; (95% confidence limits), values from the literature ref 26) is given as 0.39 (0.15, 0.58) ^a mg/kg, the “cross tolerance to morphine (in words)” value [6] is given as “no observable” and the “analgesic potency fold greater than morphine” value ([6]; compared to morphine ref 26) is given as 10 fold. For the same molecule, the “analgesic activity in E11 knockout mouse (in words)” value ([7]; E11 knockout mouse, disruption of exon 11-associated variants ref 26) was “without activity”, the “analgesic activity in MOR-1/DOR-1/KOR-1 triple knockout mouse (in words)” value ([7]; triple knockout mouse lacking traditional mu, delta and kappa1 receptors ref 26) was “retained full analgesic activity” and the “respiratory depression (in words)” value [8] was “no observable respiratory depression”. For the same molecule, the “inhibition of gastrointestinal transit (in words)” value [9] was “limited inhibition of gastrointestinal transit”, the “physical dependence (in words)” value [10] was “no observable” and the “rewarding behavior in the conditioned place preference assay (in words)” value [11] was “no observable”.
With `C=CCN1CC[C@]23c4c5ccc(O)c4O[C@H]2[C@H](NC(=O)CCCCC)CC[C@@]3(O)[C@H]1C5` [Compound 34, 17-Allyl-3,14β-dihydroxy-4,5α-epoxy-6β-(hexylamido)morphinan] the Ki [2] was 9.15 ± 0.94 nM.
With “17-Allyl-3,14β-dihydroxy-4,5α-epoxy-6β-[2-adamantylamido]morphinan [Compound 37]” the “Tail flick analgesia ED50 mg/kg (95%CL)” value ([5]; s.c., CD-1 mice, radiant heat tail flick, (95% confidence limits)) was over 10 mg/kg.
Molecule `O=C(NC1CCC2(O)C3Cc4ccc(O)c5c4C2(CCN3CC2CC2)C1O5)c1cccc(I)c1` (stereo not shown) [Compound 125IBNtxA, reference compound] has a Kd ([1]; read-out: 125IBNtxA KD MOR-1, radioligand KD) of 0.11 nM, a Kd ([2]; read-out: 125IBNtxA KD KOR-1, radioligand KD) of 0.03 nM and a Kd ([3]; read-out: 125IBNtxA KD DOR-1, radioligand KD) of 0.24 nM.
In the case of `C=CCN1CC[C@]23c4c5ccc(O)c4O[C@H]2[C@H](NC(=O)c2cccc(OC)c2)CC[C@@]3(O)[C@H]1C5` [Compound 25, 17-Allyl-3,14β-dihydroxy-4,5α-epoxy-6β-[(3′-methoxy)benzamido]morphinan], the “fold mu selectivity over delta” value ([1]; mu vs delta) is reported as 100 fold, the “fold lower binding affinity” value [4] is reported as 10 fold and the “fold greater analgesic potency” value ([5]; compared to 15) is reported as “over 3 fold”. For the same molecule, the “analgesic activity (in words)” value ([5]; s.c.) was “potent analgesic actions”.
In the case of `C=CCN1CC[C@]23c4c5ccc(O)c4O[C@H]2[C@@H](NC(=O)c2cccc(I)c2)CC[C@@]3(O)[C@H]1C5` [Compound 16, 17-Allyl-3,14β-dihydroxy-4,5α-epoxy-6α-[(3′-iodo)benzamido]morphinan], the “fold lower affinity for mu receptors” value ([1]; compared to 15) is reported as 23 fold, the “fold lower affinity for kappa receptors” value ([2]; compared to 15) is reported as 150 fold and the “fold lower affinity for delta receptors” value [3] is reported as 3 fold. The “fold lower binding affinity” value [4] was 33 fold and the “fold higher ED50 / lower analgesic activity” value ([5]; compared to 15) was 10 fold.
With `C=CCN1CC[C@]23c4c5ccc(O)c4O[C@H]2[C@H](NC(=O)c2ccccc2I)CC[C@@]3(O)[C@H]1C5` [Compound 17, 17-Allyl-3,14β-dihydroxy-4,5α-epoxy-6β-[(2′-iodo)benzamido]morphinan] the “fold lower affinity for mu receptors” value ([1]; compared to 15) was “approximately 10 fold”, the “fold lower affinity for kappa receptors” value ([2]; compared to 15) was “approximately 10 fold” and the “fold lower affinity for delta receptors” value [3] was “approximately 10 fold”. The “fold lower binding affinity” value [4] was 100 fold and the “analgesic activity (in words)” value ([5]; s.c.) was “eliminated its analgesic activity”.
With `CN1CC[C@]23c4c5ccc(O)c4O[C@H]2[C@@H](O)C=C[C@H]3[C@H]1C5` [morphine, reference compound] the “effect on respiratory rate (in words)” value [12] was “decreases respiratory depression”.
With `CN1CC[C@]23c4c5ccc(O)c4O[C@H]2[C@H](NC(=O)c2cccc(I)c2)CC[C@@]3(O)[C@H]1C5` [Compound 14] the “analgesic activity (in words)” value ([5]; s.c.) was “No analgesia could be detected”.
For `C=CCN1CC[C@]23c4c5ccc(O)c4O[C@H]2[C@H](NC(=O)c2cccc(I)c2)CC[C@@]3(O)[C@H]1C5` [Compound 15, 17-Allyl-3,14β-dihydroxy-4,5α-epoxy-6β-[(3′-iodo)benzamido]morphinan], the “fold lower affinity for mu receptors” value ([1]; compared to 1) was “about 2 fold”, the “fold lower affinity for kappa receptors” value ([2]; compared to 1) was “about 2 fold” and the “fold more potent an analgesic than morphine” value ([5]; compared to morphine) was 10 fold. For the same molecule, the “effect on respiratory rate (in words)” value [12] was “did not depress respiratory rate; also recorded: no respiratory depression”.
For `C=CCN1CC[C@]23c4c5ccc(O)c4O[C@H]2[C@H](NC(=O)c2ccc(-c4ccccc4)cc2)CC[C@@]3(O)[C@H]1C5` [Compound 32, 17-Allyl-3,14β-dihydroxy-4,5α-epoxy-6β-[(4′-phenyl)benzamido]morphinan], the “analgesic activity (in words)” value ([5]; s.c.) was “not analgesic”.
